{
  "source": "patent US20240092846A1",
  "about": "“ENGINEERED CYCLOTIDES WITH POTENT BROAD ANTIMICROBIAL ACTIVITY” (priority 2022, published 2024)",
  "key": {"E. coli": {"tested_on": "E. coli", "settings": "CAMHB", "procedure": "(§1) Broad-spectrum antimicrobial activity was evaluated using the broth microdilution assays against two different pathogens from four different species of bacteria (P. aeruginosa, S. aureus, K. pneumoniae, and E. coli) to determine if the cyclotides retained its potent activity. Broth microdilution assays were utilized to determine the minimum inhibitory concentrations (MICs) of our cyclotides according to the CLSI (formerly NCCLS) guidelines modifications as described below (40). The assay utilized cation-adjusted Mueller-Hinton broth (CAMHB) (Becton, Dickinson and Company, Franklin Lakes, NJ) which was prepared according to the manufacturer's instructions. Cyclotide solutions were prepared as 10× solutions in 0.01% acetic acid. Cyclotide were serially diluted two-fold at concentrations ranging from 25-0.05 μM that contained CAMHB and 0.04% bovine serum albumin (BSA) in polypropylene microtiter plates (Corning, Corning, NY). All bacteria were incubated overnight at 37° C. at 200 rpm in CAMHB and bacterial inoculum was adjusted with additional CAMHB to 0.5 McFarland standard through spectrophotometry at 600 nm. […] Study strains included a total of 20 P. aeruginosa and 20 methicillin resistant S. aureus strains from patients with cystic fibrosis at the Keck Medical Center of the University of Southern California. […] Colistin sulphate (Sigma-Aldrich, St Louis, MO) was used as a reference antibiotic for P. aeruginosa and E. coli, while vancomycin hydrochloride and meropenem trihydrate were used as reference antibiotics for S. aureus and K. pneumoniae."}, "[1]": {"tested_on": "clinical isolates of P. aeruginosa", "procedure": "as §1"}, "[2]": {"tested_on": "clinical isolates of methicillin-resistant S. aureus (MRSA)", "procedure": "as §1"}, "[3]": {"tested_on": "human HEK293T and A549 epithelial cells", "procedure": "Cytotoxicity Assay. Cellular toxicities against human HEK293T and A549 epithelial cells were evaluated using Resazurin (Alamarblue™, Thermo Fisher Scientific, Waltham, MA). HEK293T cells were grown in minimum essential media (MEM), while A549 cells were grown in Dulbecco's […] (DMEM) supplemented with 10% fetal bovine serum (FBS) and maintained at 37° C. with 5% CO2. For each cell line, 10^4 cells were added to each well in a 96-well polystyrene plate and incubated for 16 h. Peptides were serially diluted two-fold at concentrations ranging from 100-0.2 μM in medium containing 10% FBS in polystyrene 96 well microtiter plates (Corning) for 16 h. After the incubation period, the cells were washed with PBS and treated with 200 μL/well DMEM media supplemented with 10% FBS containing the peptides at the indicated concentration for 22 h at 37° C. in 5% CO2 and then the medium was replaced with fresh growth medium containing resazurin and incubated for another 2 hours. Cell viability was quantified spectrophotometrically and cells incubated in the absence of peptides and containing 2% Triton X-100 (Sigma) served as controls."}, "in vitro": {"assay": "in vitro", "settings": "37° C., LC-MS/MS", "procedure": "This was accomplished by incubating the corresponding peptides in human serum at 37° C. The quantitative analysis of undigested polypeptides was performed using liquid chromatography coupled with tandem mass spectrometry (LC-MS/MS). MCoTI-cyclotides present a very rigid structure,[24] which makes them extremely stable to proteolytic degradation.\nHuman serum stability. […]. Peptides were dissolved in water at 10 mg/mL concentration. 150 μg of peptides (15 μL) were mixed with 500 μL of human serum and incubated at 37° C. Samples (30 μL) were taken at various time intervals (0-120 h) and serum proteins were precipitated using 180 μL of acetonitrile containing 0.1% TFA. After centrifugation the pellet was dissolved in 8 M GdmCl and the supernatant was lyophilized and re-dissolved in 5% acetonitrile in water containing 0.1% formic acid. Both the supernatant and solubilized pellet fractions were analyzed by HPLC and LC-MS/MS. Each experiment was done in triplicate."}, "[4]": {"assay": "Maximum tolerated dose (MTD) toxicology study", "from_the_text": "Colistin was used as a control antibiotic.[28] […] For this purpose, Applicant employed a P. aeruginosa bacterial peritonitis model.[29] This animal model is a well-established acute infection model and is commonly utilized as a common preclinical screening method for new antibiotics.[30] Peritonitis in Balb/c mice (n=10) was established by intraperitoneal injection of 1.5×10^7 colony forming units (CFU) per mouse of P. aeruginosa (Schroeter) Migula (ATCC 27853).\nMaximum tolerated dose (MTD) toxicology Studies. The MTD was determined using two different endpoints: weight loss and clinical scoring. Clinical scores were evaluated through activity, appearance and body condition, similar to previously published literature (42). […] Any dose escalation that leads to moderate toxicity (clinical score of >2) was ceased and the dose prior served as the MTD. Mice were monitored every hour for 4 h after injection on the first day. After 24 h, mice were monitored twice daily for another two days until weight and clinical scores were returned to normal. Mice that met the criteria for moribund included a >20% weight loss and clinical score of >3 and were euthanized."}},
  "note": "Values joined by “and” are separate entries in the source; they are usually repeats but may differ in a detail not shown here. Equal values may be shown once. “Also recorded” adds a separate entry of the source. Read-outs that look alike come from different tables or passages of the source.",
  "data": [
    {"smiles": "CC[C@H](C)[C@@H]1NC(=O)[C@@H]2CSSC[C@@H]3NC(=O)[C@H](C(C)C)NC(=O)CNC(=O)CNC(=O)[C@H](CCCNC(=N)N)NC(=O)[C@H](CCCNC(=N)N)NC(=O)CNC(=O)[C@H](C(C)C)NC(=O)[C@@H]4CSSC[C@H](NC(=O)[C@H](CC(C)C)NC(=O)[C@H](CCCNC(=N)N)NC(=O)CNC(=O)CNC(=O)[C@H](CO)NC(=O)CNC(=O)[C@H](CO)NC(=O)CNC(=O)[C@@H]5CSSC[C@H](NC(=O)[C@H](CC(=O)O)NC(=O)[C@H](CO)NC(=O)[C@H](CC(=O)O)NC(=O)[C@H](CCCNC(=N)N)NC(=O)[C@H](CCCNC(=N)N)NC(=O)[C@H](CSSC[C@H](NC1=O)C(=O)N[C@@H](CCCNC(=N)N)C(=O)NCC(=O)N[C@@H](CC(N)=O)C(=O)NCC(=O)N[C@@H](Cc1ccc(O)cc1)C(=O)N5)NC(=O)[C@H](CCCNC(=N)N)NC(=O)[C@H](CCC(N)=O)NC(=O)[C@H](CC(C)C)NC(=O)[C@H]([C@@H](C)CC)NC(=O)[C@H](CCCCN)NC(=O)[C@@H]1CCCN1C3=O)C(=O)N1CCC[C@H]1C(=O)NCC(=O)N[C@@H](C)C(=O)N2)C(=O)N[C@@H](Cc1ccc(O)cc1)C(=O)N[C@H]1CSSC[C@H](NC(=O)[C@H](Cc2ccccc2)NC(=O)[C@H](CCCNC(=N)N)NC(=O)[C@H](CCCNC(=N)N)NC(=O)[C@H](CCCNC(=N)N)NC1=O)C(=O)N[C@@H](C(C)C)C(=O)N4", "note": "[MCo-PG2]", "values": [
      {"measurement": "MIC", "setting": "E. coli; E. coli DS377", "result": 0.8, "unit": "µM"},
      {"measurement": "MIC", "setting": "E. coli; E. coli K12", "result": 0.8, "unit": "µM"},
      {"measurement": "P. aeruginosa (PA) MIC", "setting": "[1]; PA strain 95302", "result": 1.57, "unit": "µM"},
      {"measurement": "P. aeruginosa (PA) MIC", "setting": "[1]; PA strain 119133", "result": 3.125, "unit": "µM"},
      {"measurement": "P. aeruginosa (PA) MIC", "setting": "[1]; PA strain 167482", "result": 0.4, "unit": "µM"},
      {"measurement": "P. aeruginosa (PA) MIC", "setting": "[1]; PA strain 200174", "result": 0.4, "unit": "µM"},
      {"measurement": "P. aeruginosa (PA) MIC", "setting": "[1]; PA strain 219686", "result": 3.125, "unit": "µM"},
      {"measurement": "P. aeruginosa (PA) MIC", "setting": "[1]; PA strain 254831", "result": 1.5, "unit": "µM"},
      {"measurement": "P. aeruginosa (PA) MIC", "setting": "[1]; PA strain 262309", "result": 1.5, "unit": "µM"},
      {"measurement": "P. aeruginosa (PA) MIC", "setting": "[1]; PA strain 298473", "result": 0.78, "unit": "µM"},
      {"measurement": "P. aeruginosa (PA) MIC", "setting": "[1]; PA strain 466035", "result": 0.4, "unit": "µM"},
      {"measurement": "P. aeruginosa (PA) MIC", "setting": "[1]; PA strain 486442", "result": 0.78, "unit": "µM"},
      {"measurement": "P. aeruginosa (PA) MIC", "setting": "[1]; PA strain 618154", "result": 0.78, "unit": "µM"},
      {"measurement": "P. aeruginosa (PA) MIC", "setting": "[1]; PA strain 678449", "result": 3.125, "unit": "µM"},
      {"measurement": "P. aeruginosa (PA) MIC", "setting": "[1]; PA strain 774248", "result": 12.5, "unit": "µM"},
      {"measurement": "P. aeruginosa (PA) MIC", "setting": "[1]; PA strain 815159", "result": 0.78, "unit": "µM"},
      {"measurement": "P. aeruginosa (PA) MIC", "setting": "[1]; PA strain 844265", "result": 0.78, "unit": "µM"},
      {"measurement": "P. aeruginosa (PA) MIC", "setting": "[1]; PA strain 857950", "result": 6.25, "unit": "µM"},
      {"measurement": "P. aeruginosa (PA) MIC", "setting": "[1]; PA strain 864684", "result": 3.125, "unit": "µM"},
      {"measurement": "P. aeruginosa (PA) MIC", "setting": "[1]; PA strain 894496", "result": 0.78, "unit": "µM"},
      {"measurement": "P. aeruginosa (PA) MIC", "setting": "[1]; PA strain 894925", "result": 3.125, "unit": "µM"},
      {"measurement": "P. aeruginosa (PA) MIC", "setting": "[1]; PA strain 900719", "result": 3.125, "unit": "µM"},
      {"measurement": "S. aureus MIC50", "setting": "[2]; MRSA clinical isolates, n=20", "result": "6.25 µM and 6.3 µM"},
      {"measurement": "S. aureus MIC90", "setting": "[2]; MRSA clinical isolates, n=20", "result": 12.5, "unit": "µM"},
      {"measurement": "S. aureus (SA) MIC", "setting": "[2]; SA strain 766", "result": 6.25, "unit": "µM"},
      {"measurement": "S. aureus (SA) MIC", "setting": "[2]; SA strain 4084-1", "result": 12.5, "unit": "µM"},
      {"measurement": "S. aureus (SA) MIC", "setting": "[2]; SA strain 4094", "result": 12.5, "unit": "µM"},
      {"measurement": "S. aureus (SA) MIC", "setting": "[2]; SA strain 6151-1", "result": 12.5, "unit": "µM"},
      {"measurement": "S. aureus (SA) MIC", "setting": "[2]; SA strain 10337-1", "result": 6.25, "unit": "µM"},
      {"measurement": "S. aureus (SA) MIC", "setting": "[2]; SA strain 10630-1", "result": 6.25, "unit": "µM"},
      {"measurement": "S. aureus (SA) MIC", "setting": "[2]; SA strain 20021-1", "result": 6.25, "unit": "µM"},
      {"measurement": "S. aureus (SA) MIC", "setting": "[2]; SA strain 20457-1", "result": 12.5, "unit": "µM"},
      {"measurement": "S. aureus (SA) MIC", "setting": "[2]; SA strain 28283", "result": 6.25, "unit": "µM"},
      {"measurement": "S. aureus (SA) MIC", "setting": "[2]; SA strain 28310", "result": 6.25, "unit": "µM"},
      {"measurement": "S. aureus (SA) MIC", "setting": "[2]; SA strain 28355", "result": 6.25, "unit": "µM"},
      {"measurement": "S. aureus (SA) MIC", "setting": "[2]; SA strain 30138-2", "result": 3.125, "unit": "µM"},
      {"measurement": "S. aureus (SA) MIC", "setting": "[2]; SA strain 30493-1", "result": 6.25, "unit": "µM"},
      {"measurement": "S. aureus (SA) MIC", "setting": "[2]; SA strain 32120-1", "result": 6.25, "unit": "µM"},
      {"measurement": "S. aureus (SA) MIC", "setting": "[2]; SA strain 38878-2", "result": 3.125, "unit": "µM"},
      {"measurement": "S. aureus (SA) MIC", "setting": "[2]; SA strain 87066", "result": 12.5, "unit": "µM"},
      {"measurement": "S. aureus (SA) MIC", "setting": "[2]; SA strain 87112", "result": 12.5, "unit": "µM"},
      {"measurement": "S. aureus (SA) MIC", "setting": "[2]; SA strain 87180", "result": 6.25, "unit": "µM"},
      {"measurement": "S. aureus (SA) MIC", "setting": "[2]; SA strain 88,531", "result": 12.5, "unit": "µM"},
      {"measurement": "S. aureus (SA) MIC", "setting": "[2]; SA strain 902674", "result": 12.5, "unit": "µM"},
      {"measurement": "cytotoxicity relative to PG-1", "setting": "[3]", "result": "about three times less toxic than PG-1; also recorded: about three times less cytotoxic than PG-1"},
      {"measurement": "t1/2 in human serum", "setting": "in vitro", "result": "~60", "unit": "h"},
      {"measurement": "half-life at 0.291 mg/mL", "setting": "in vitro; human, human serum, t1/2 in human serum", "result": "60 ± 6", "unit": "h"},
      {"measurement": "MTD at 3 days", "setting": "[4]; Balb/c, mouse, in vivo, ip", "result": 25, "unit": "mg/kg"},
      {"measurement": "times less toxic than PG-1 in mice", "setting": "[4]; in vivo toxicity studies", "result": "approximately 4"}
    ]}
  ]
}
